Measured values taken from US9376421B2, “Compounds and methods for myotonic dystrophy therapy” (The Board of Trustees of the University of Illinois, priority 2014, dated 2016).
“Also recorded” adds a separate entry of the source.

Columns and labels:
cTNT minigene splicing = details: DM1 model cell cultures; cited from earlier work
cTNT32 = test: Ligand-RNA binding affinity, cTNT32
d(CAG)12 = test: Isothermal titration calorimetry, d(CAG)12; format: binding; details: 25° C., 20 mM MOPS pH 7.0, 300 mM NaCl
Protocol: (§1) To directly assess the DNA-targeting ability of 9, ITC experiments were performed with oligonucleotide analogs of the various trinucleotide repeat sequences (Table 1). […] This supports the idea that 9 inhibits the transcription of CTG^exp by stabilizing its hairpin structure. […] The in vitro transcription experiment using (CTG[…]CAG)74 (SEQ ID NOS 3-4, respectively) and compounds 2, 5-7, and 9 was repeated but with (CUG)16 (SEQ ID NO: 1) added as a competitor.
(§2) Isothermal titration calorimetry (ITC) measurements were performed at 25° C. on a MicroCal VP-ITC (MicroCal, Inc., Northampton, Mass.). A standard experiment consisted of titrating 10 μL of a 500 μM ligand solution from a […] syringe (rotating at 300 rpm) into a sample cell containing 1.42 mL of a 10 μM DNA or RNA solution. An ITC experiment consisted of 28 total injections (first injection was 5 μL, subsequent injections were 10 μL), with a 10 s duration per injection and delay of 380 s between injections. The initial delay prior to the first injection was 300 s. To derive the heat associated with each injection, the area under each isotherm (microcalories per second versus seconds) was determined by integration by the graphing program Origin 7.0 (MicroCal, Inc. Northampton, Mass.). […]

[1] = system: SV40 terminator mRNA in i(CUG)60 larvae; test: SV40 mRNA level in i(CUG)60 larvae (real-time PCR); format: in vivo, Drosophila; details: 400 μM
(CCUG)6 / (CCUG)8 = test: Ligand-RNA binding affinity, CCUG repeats; details: (CCUG)8
From the text: (§3) Off target activity is a concern for any therapeutic agent but especially one designed to cleave RNA. To test the selectivity of agents 6 and 9, the screening gel assay described above was applied to other RNA targets, specifically cTNT32, (CCUG)8 (SEQ ID NO: 11), and HIV-1 frameshift site RNA (HIV FS) (FIG. 5a). Both 6 and 9 were quite selective. […] Thus, both similarly adopt stem-loop structures with internal loops within the stem, although obviously of different sequences. Differences between 6 and 9 were observed (FIG. 5) with the former cleaving (CCUG)8 (SEQ ID NO: 11), the toxic RNA involved in myotonic dystrophy type 2 (DM2). […] The ability to process the RNA directly parallels the corresponding ligand-RNA binding affinities. Thus, 1, which contains the acridine-triazine core of agent 6, complexes the (CCUG)6 (SEQ ID NO: 12) and (CUG)n sequences.

d(CTG)12 = test: Isothermal titration calorimetry, d(CTG)12; format: binding; details: 25° C., 20 mM MOPS pH 7.0, 300 mM NaCl
Protocol: as §1, §2

(CTG.CAG)74 = test: In vitro transcription of (CTG.CAG)74; format: biochemical
Protocol: FIG. 8A-B. In vitro transcription of (CTG.CAG)74 (SEQ ID NOS 3-4, respectively). Ligands at different concentrations were incubated with 15 ng linearized plasmids in T7 RNA polymerse mixture at 37° C. After 2 h, the reaction mixture was on a 8% denaturing gel. (a) Transcription gels of ligands at different concentrations (“(CUG)74” is disclosed as SEQ ID NO: 22). (b) Plot of the percentage of transcription inhibition versus ligand concentrations. The error bars represent standard errors of mean of three independent experiments. Untreated at 100 μM is at 0%; ligand 2 at 100 μM is at ˜10%; ligand 7 at 100 μM is at ˜35%; ligand 6 at 100 μM is at ˜80%; ligand 9 at 100 μM is at ˜96%; and ligand 5 at 100 μM is at ˜99%.
(SEQ ID NOS 3-4, respectively) transcription by 5, 6, and 9 in vitro. […] Nonetheless, the additional ammonium groups in these agents might potentially increase their affinity for both CTG DNA and CUG RNA so we returned to examine the potential for inhibition of CTG^exp transcription. The in vitro (CTG.CAG)74 (SEQ ID NOS 3-4, respectively) transcription assays utilized a T7 promoter located in the upstream region of the repeats.
(SEQ ID NOS 3-4, respectively). T7 RNA polymerase-mediated transcription reactions were incubated at 37° C. for 2 h. A 10 μL mixture contained 15 ng of linearized plasmid (CTG)74 (SEQ ID NO: 3) or control plasmid templates, 0.5 mM each rATP, rCTP, rGTP, and rUTP and 0.5 U T7 polymerase (Biolab) in 1×T7 transcription buffer (80 mM Tris pH 8.3, 10 mM MgCl2, 2 mM spermine, 0.1% Triton-X, 10 mM NaCl). Ligand was added with the final concentrations of 0, 1, 10, 50, and 100 μM prior to incubation. Reactions were quenched by adding 8 μL of 8 M Urea and 2 μL of denaturing dye (95% formamide, 5 mM EDTA, 0.025% each xylene cyanol and bromophenol blue) and heating to 95° C. for 5 min. Of this solution, 15 μL was run on a 8% denaturing polyacrylamide gel in 0.5×TBE and stained with EtBr. Bands were quantified using the ImageJ (NIH). The intensity of (CUG)74 (SEQ ID NO: 22) band (ca. 260 nt) was normalized to that from the untreated transcription reaction. […]

[2] = system: MBNL1-CUGexp nuclear foci in HeLa cells transfected with GFP-DT960; details: DM1 model cell cultures; cited from earlier work
HIV FS = test: Ligand-RNA binding affinity, HIV FS; set-up: species or system HIV-1
(CUG)n = test: Ligand-RNA binding affinity, (CUG)n
From the text: as §3

[3] = cited from earlier work

N=C(NCCCCNc1nc(N)nc(N)n1)c1ccc(C(=N)NCCCCNc2nc(N)nc(N)n2)cc1 [Ligand 2]
rescue of splicing defect of cTNT minigene (earlier work) (cTNT minigene splicing): partially rescued | affinity toward cTNT32 (cTNT32): no affinity | binding affinity toward d(CAG)12 by ITC (d(CAG)12): lack of binding affinity | SV40 mRNA levels in larvae having i(CUG)60 [1]: no change | affinity toward (CCUG)8 ((CCUG)6 / (CCUG)8): no affinity | binding affinity toward d(CTG)12 by ITC (d(CTG)12): lack of binding affinity; also recorded: no detectable binding | transcription inhibition of (CTG.CAG)74 at 100 μM ((CTG.CAG)74; 100 μM, 2 h, 37° C., T7 RNA polymerase): ~10% | inhibition of (CTG.CAG)74 transcription (qualitative) ((CTG.CAG)74; 1-100 μM): negligible effects | dissolution of MBNL1-CUGexp nuclear foci (earlier work) [2]: dissolved the MBNL1-CUG^exp nuclear foci | affinity toward HIV FS (HIV FS): no affinity | complexation of (CUG)n ((CUG)n): complexes | water solubility in comparison to 1 [3]: higher water solubility
